Experimental data from US8937065B2, “Compositions and methods for modulating a kinase” (Clevexel Pharma, priority 2011, dated 2015).
Read-outs that look alike come from different tables or passages of the source.

How the values were obtained:
[1] = tested on: IL-2 stimulated PBMCs; test: IL-2-stimulated proliferation of PBMC (Cell Titer Glo); conditions: read-out: IC50 T cells outcome-based: IL-2 stimulated PBMCs Proliferation
Description: Fresh blood collection and PBMC separation assay • 1. Three donors were used to collect enough blood samples. The fresh blood was stored in Heparin Sodium tubes. • 2. Transferred blood to 50 ml centrifugal tube. 15 ml of blood was put into a tube. • 3. Added same volume of DPBS into the blood tube and mixed gently. • 4. Slowly underlayed 10 ml Ficoll using pipette (being careful to not disturb the 2 phases). • 5. Centrifuged 30 min at 800 g at RT without break. • 6. Aspirated the buffy coat (containing PBMC) at the interface between serum and ficoll. The PBMC was washed by enough DPBS and centrifuged at 900 g to remove the Ficoll. • 7. Added RPMI-1640 Medium to the collected PBMC and counted the concentration of PBMC. At least 1 million of PBMC were separated from 1 ml of blood.
IL-2-induced proliferation of PBMC by Cell Titer Glow assay • 1. Counted the PBMC numbers and adjusted cell density to 1.0*10^6/ml. • 2. Seeded cells in complete RPMI in the presence of PHA (phytohemagglutinin, 10 ug/ml). • 3. Added 100 μl of cell suspension to the 96-well plate (white) according to the planned plate map. So there were 1.0*10^5 cells in each well. Cultured for 3 days. • 4. Replaced media with complete RPMI plus IL-2, 100 units/ml and compounds, e.g compounds were added only at IL-2 incubation step. Cultured for 2 days. • 5. […] Recorded luminescence with Flexstation 3 and export the data.

[2] = tested on: Daudi cells; test: Proliferation of Daudi cells (Cell Titer-Glo, 96 h); conditions: Homo sapiens, B cells, outcome-based, read-out: IC50 Proliferation Daudi cells (Burkitt's Lymphoma)
Description: Growth inhibitory activity against the human tumor cell lines, RS4; 11 and Daudi was determined using Promega's Cell Titer-Glo® assay. The human tumor cells were placed in a 96-well microculture plate (Costar white, flat bottom #3917) in a total volume of 90 μL/well. After 24 hours of incubation in a humidified incubator at 37° C. with 5% CO2 and 95% air, […] serially diluted test agents in growth medium were added to each well. After 96 total hours of culture in a CO2 incubator, the plated cells and Cell Titer-Glo® (Promega # G7571) reagents were brought to room temperature to equilibrate for 30 minutes. 100 μL of Cell Titer-Glo® reagent was added to each well. The plate was shaken for 2 minutes and then left to equilibrate for 10 minutes before reading luminescence on the Tecan GENios microplate reader.
Percent inhibition of cell growth was calculated relative to untreated control wells. All tests were performed in duplicate at each concentration level. The IC50 value for the test agents was estimated using Prism 3.03 by curve-fitting the data using the following four parameter-logistic equation: […]

[3] = molecular target: T1, JAK3 (Homo sapiens, UniProt P52333); test: JAK3 enzymatic activity assay (Z'-LYTE Biochemical Kinase Assay, 2 hr preincubation at 4° C.); conditions: cell-free
T1 construct: purchased Invitrogen, Madison, Wis
T1 sequence (P52333 1-1124): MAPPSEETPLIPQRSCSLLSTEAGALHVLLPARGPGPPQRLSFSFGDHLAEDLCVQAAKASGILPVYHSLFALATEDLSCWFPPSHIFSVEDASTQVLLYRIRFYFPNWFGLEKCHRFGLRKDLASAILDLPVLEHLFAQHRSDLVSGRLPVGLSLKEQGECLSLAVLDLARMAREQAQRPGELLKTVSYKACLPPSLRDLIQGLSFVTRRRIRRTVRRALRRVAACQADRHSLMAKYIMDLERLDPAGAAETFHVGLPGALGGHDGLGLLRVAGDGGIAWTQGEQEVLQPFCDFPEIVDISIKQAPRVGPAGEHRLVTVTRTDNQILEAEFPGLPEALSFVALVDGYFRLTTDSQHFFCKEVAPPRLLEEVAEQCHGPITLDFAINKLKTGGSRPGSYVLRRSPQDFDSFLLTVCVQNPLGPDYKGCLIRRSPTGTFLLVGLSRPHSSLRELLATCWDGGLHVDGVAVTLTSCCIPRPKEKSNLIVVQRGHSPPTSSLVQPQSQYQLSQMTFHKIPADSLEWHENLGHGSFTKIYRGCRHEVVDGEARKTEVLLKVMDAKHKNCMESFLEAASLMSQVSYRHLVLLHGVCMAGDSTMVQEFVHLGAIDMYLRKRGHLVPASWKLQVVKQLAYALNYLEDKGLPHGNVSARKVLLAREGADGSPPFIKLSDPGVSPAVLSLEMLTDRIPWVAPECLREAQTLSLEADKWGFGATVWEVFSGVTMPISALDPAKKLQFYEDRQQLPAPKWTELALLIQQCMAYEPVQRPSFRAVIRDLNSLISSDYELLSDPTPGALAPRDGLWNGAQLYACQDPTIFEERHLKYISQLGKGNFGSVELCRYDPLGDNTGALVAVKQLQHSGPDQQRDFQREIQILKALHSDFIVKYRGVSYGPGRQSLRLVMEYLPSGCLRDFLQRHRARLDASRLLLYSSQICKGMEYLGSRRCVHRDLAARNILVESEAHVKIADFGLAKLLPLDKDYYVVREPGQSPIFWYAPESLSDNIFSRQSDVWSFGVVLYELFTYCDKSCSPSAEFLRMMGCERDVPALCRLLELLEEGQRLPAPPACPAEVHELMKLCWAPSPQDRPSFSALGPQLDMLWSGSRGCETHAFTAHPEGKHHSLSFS

[4] = molecular target: T1, JAK3; test: as above; conditions: cell free, 1% DMSO, read-out: JAK3 activity cell free (2 hr preincubation at (4° C.) Kj)
Description: The assays were performed according to manufacturer's protocols, except that prior to the kinase reaction they were pre-incubated for 2 hours at 4° C., in order to be able to assay for time-dependent inhibition.
In addition to the compound, each 10 μL JAK3 kinase reaction contained 0.43-1.89 ng JAK3 and 2 μM peptide substrate in 50 mM HEPES (pH 7.5), 0.01% BRIJ-35, 10 mM MgCl2 and 1 mM EGTA. The kinase reaction was allowed to proceed for 1 hour.

## O=C(CN1CCOCC1)Nc1cccc(-c2nc(-c3c[nH]c(C(=O)N4CCCC4)c3)cs2)c1 [7A, 2-morpholino-N-(3-(4-(5-(pyrrolidine-1-carbonyl)-1H-pyrrol-3-yl)thiazol-2-yl)phenyl)acetamide]
[1]
  IC50: 3000 to 6000 nM
[2]
  IC50: 159 nM
[3]
  Ki: 0.795 µM
[4]
  Ki: 1100 to 10000 nM
